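These data come from cells grown in 96-well plates and exposed to compound for 48 hours at five concentrations. At the GI50, growth is halved. The concentration for full growth arrest is given as TGI.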
Assays:
Test in all cases: NCI tumour cell line growth inhibition, 48 h
786-0 renal = test system: 786-0 renal
A498 renal = test system: A498 renal
A549 NSCLC = test system: A549 NSCLC
ACHN renal = test system: ACHN renal
BT-549 breast = test system: BT-549 breast
CAKI-1 renal = test system: CAKI-1 renal
CCRF-CEM leukemia = test system: CCRF-CEM leukemia
COLO 205 colon = test system: COLO 205 colon
DU-145 prostate = test system: DU-145 prostate
EKVX NSCLC = test system: EKVX NSCLC
HCC-2998 colon = test system: HCC-2998 colon
HCT-116 colon = test system: HCT-116 colon
HCT-15 colon = test system: HCT-15 colon
HL-60(TB) leukemia = test system: HL-60(TB) leukemia
HOP-62 NSCLC = test system: HOP-62 NSCLC
HOP-92 NSCLC = test system: HOP-92 NSCLC
HS 578T breast = test system: HS 578T breast
HT29 colon = test system: HT29 colon
IGROV1 ovarian = test system: IGROV1 ovarian
K-562 leukemia = test system: K-562 leukemia
KM12 colon = test system: KM12 colon
M14 melanoma = test system: M14 melanoma
MALME-3M melanoma = test system: MALME-3M melanoma
MCF7 breast = test system: MCF7 breast
MDA-MB-231 breast = test system: MDA-MB-231 breast
MDA-MB-435 = test system: MDA-MB-435
MOLT-4 leukemia = test system: MOLT-4 leukemia
NCI-H226 lung = test system: NCI-H226 lung

Compound `NS(=O)(=O)c1ccc(Nc2nc(N/N=C/c3ccc(C(F)(F)F)cc3)nc(Nc3ccccc3)n2)cc1` has a GI50 (786-0 renal) of 2.22 µM, a TGI (786-0 renal) of 5.2 µM and a GI50 (A498 renal) of 2.61 µM. It also gave a TGI (A498 renal) of 9.26 µM, a GI50 (A549 NSCLC) of 3.11 µM and a TGI (A549 NSCLC) of 11.6 µM. It also gave a GI50 (ACHN renal) of 2.68 µM, a TGI (ACHN renal) of 7.59 µM and a GI50 (BT-549 breast) of 2.79 µM. For the same compound, the TGI (BT-549 breast) was 9.48 µM, the GI50 (CAKI-1 renal) was 3.05 µM and the TGI (CAKI-1 renal) was 9.93 µM. For the same compound, the GI50 (CCRF-CEM leukemia) was 3 µM, the TGI (CCRF-CEM leukemia) was > 100 µM and the GI50 (COLO 205 colon) was 1.86 µM. It also gave a TGI (COLO 205 colon) of 4.37 µM, a GI50 (DU-145 prostate) of 3.31 µM and a TGI (DU-145 prostate) of 11 µM. It also gave a GI50 (EKVX NSCLC) of 2.62 µM, a TGI (EKVX NSCLC) of 8.51 µM and a GI50 (HCC-2998 colon) of 2.97 µM. The TGI (HCC-2998 colon) was 9.04 µM, the GI50 (HCT-116 colon) was 3.1 µM and the TGI (HCT-116 colon) was 10.3 µM. It also gave a GI50 (HCT-15 colon) of 2.32 µM, a TGI (HCT-15 colon) of 6.48 µM and a GI50 (HL-60(TB) leukemia) of 3.59 µM. For the same compound, the TGI (HL-60(TB) leukemia) was > 100 µM, the GI50 (HOP-62 NSCLC) was 2.15 µM and the TGI (HOP-62 NSCLC) was 5.78 µM. For the same compound, the GI50 (HOP-92 NSCLC) was 2.38 µM, the TGI (HOP-92 NSCLC) was 6.31 µM and the GI50 (HS 578T breast) was 3.07 µM. For the same compound, the TGI (HS 578T breast) was > 100 µM, the GI50 (HT29 colon) was 2.44 µM and the TGI (HT29 colon) was 5.78 µM. The GI50 (IGROV1 ovarian) was 2.64 µM, the TGI (IGROV1 ovarian) was 7.42 µM and the GI50 (K-562 leukemia) was 3.51 µM. For the same compound, the TGI (K-562 leukemia) was 12.8 µM, the GI50 (KM12 colon) was 2.38 µM and the TGI (KM12 colon) was 5.61 µM. For the same compound, the GI50 (M14 melanoma) was 2.51 µM, the TGI (M14 melanoma) was 6.45 µM and the GI50 (MALME-3M melanoma) was 1.87 µM. For the same compound, the TGI (MALME-3M melanoma) was 3.9 µM, the GI50 (MCF7 breast) was 2.18 µM and the TGI (MCF7 breast) was 7.37 µM. The GI50 (MDA-MB-231 breast) was 2.31 µM, the TGI (MDA-MB-231 breast) was 5.52 µM and the GI50 (MDA-MB-435) was 2.07 µM. It also gave a TGI (MDA-MB-435) of 4.44 µM, a GI50 (MOLT-4 leukemia) of 3.06 µM and a TGI (MOLT-4 leukemia) of 14.4 µM. It also gave a GI50 (NCI-H226 lung) of 2.45 µM.

From PubChem BioAssay (NCI)
